As usually defined, the logP is a log measure of how a compound divides between an organic and an aqueous phase. A word on the mortality: it is the percentage killed.

SMILES strings stand for the structures.

Data set [1] in a line: 1-octanol-water partition co-efficient, log P of the compound. It counts as physicochemical.
The subject of data set [2] is Chilo suppressalis. The data set is described as follows: Insecticidal activity against Chilo suppressalis (rice stem borer) third-instar larvae assessed as mortality at pI50 after 5 days in presence of piperonyl butoxide. On the set-up: concentration or dose not given beside the values. The format is functional.
Data set [3] deals with Chilo suppressalis. The data set can be described thus: Insecticidal activity against Chilo suppressalis (rice stem borer) third-instar larvae assessed as mortality after 5 days in presence of piperonyl butoxide. The format is functional.
For data set [4], the system named is Chilo suppressalis. The data set can be described thus: Insecticidal activity against Chilo suppressalis (rice stem borer) third-instar larvae assessed as mortality after 5 days. The format is functional.
In data set [5] the test system is Chilo suppressalis. The data set is described as follows: Insecticidal activity against Chilo suppressalis (rice stem borer) third-instar larvae assessed as mortality at pI50 after 5 days. The format is functional.
Data set [6] has as its system Chilo suppressalis. The data set is described as follows: Inhibition of chitin synthesis in 20-hydroxyecdysone-stimulated Chilo suppressalis (rice stem borer) larval integument assessed as inhibition of N-acetyl-{1-14C]-glucosamine at pI50 after 72 hr by liquid scintillation counting. It counts as functional.

Molecule `COc1cccc(OC)c1C(=O)Nc1nnc(-c2ccc(F)cc2)s1` returned a logP in data set [1] of 3.5. In the data set with Chilo suppressalis [2], the mortality was 14%. The pLD50 in the data set with Chilo suppressalis [3] was below 5.

With `COc1cccc(OC)c1C(=O)Nc1nnc(-c2ccc(Cl)cc2)s1`, the pLD50 with Chilo suppressalis [4] was 5.96; in the data set with Chilo suppressalis [3] it was below 5.96. Besides, the logP in data set [1] was 3.96.

Take `O=C(Nc1nnc(-c2ccc(Cl)cc2)s1)c1c(Cl)cccc1Cl`: in the data set with Chilo suppressalis [5], the mortality came out at 5%. For the same molecule, in the data set on Chilo suppressalis [4], the pLD50 is below 5.

Molecule `COc1cccc(OC)c1C(=O)Nc1nnc(-c2ccc(C#N)cc2)s1` registered a logP in data set [1] of 3.14.

`Cc1ccccc1C(=O)Nc1nnc(-c2ccc(Cl)cc2)s1`: the mortality in the data set on Chilo suppressalis [5] was found to be 0%. Further, the pLD50 in the data set with Chilo suppressalis [4] is on record as below 4.6.

In data set [1], `COc1cccc(OC)c1C(=O)Nc1nnc(-c2ccc(Br)cc2)s1` displayed a logP of 3.96. In addition, the pLD50 with Chilo suppressalis [3] stood at 5.57.

For the molecule `O=C(Nc1nnc(-c2ccc(Cl)cc2)s1)c1ccccc1I`, in the data set with Chilo suppressalis [5], the mortality is recorded as 5%. In addition, the pLD50 in the data set with Chilo suppressalis [4] is below 4.6. For the same molecule, the “inhibition (INH)” value in the data set on Chilo suppressalis [6] came out at 17%.

As to `O=C(Nc1nnc(-c2ccc(Cl)cc2)s1)c1c(F)cccc1F`, the mortality in the data set with Chilo suppressalis [5] is 0%. Further, the pLD50 in the data set on Chilo suppressalis [4] was below 4.6. Also, the “inhibition (INH)” value in the data set with Chilo suppressalis [6] was found to be 42%.

With `COc1cccc(OC)c1C(=O)Nc1nnc(-c2ccccc2)s1`, the logP in data set [1] worked out at 3.5. Further, the mortality with Chilo suppressalis [2] worked out at 0%. The pLD50 with Chilo suppressalis [3] was below 5.

In the case of `CCOc1ccccc1C(=O)Nc1nnc(-c2ccc(Cl)cc2)s1`, in the data set on Chilo suppressalis [5], the mortality was 10%. In addition, in the data set on Chilo suppressalis [4], the pLD50 is given as below 5.6. Moreover, in the data set with Chilo suppressalis [6], the “inhibition (INH)” value is listed as 23%.

`CCOc1ccc(-c2nnc(NC(=O)c3c(OC)cccc3OC)s2)cc1` had a logP in data set [1] of 3.75. In the data set with Chilo suppressalis [2], the mortality is given as 6%. Also, in the data set with Chilo suppressalis [3], the pLD50 was below 5.

Take `COc1ccc(-c2nnc(NC(=O)c3c(OC)cccc3OC)s2)cc1`: the logP in data set [1] was found to be 3.56. For the same molecule, the mortality with Chilo suppressalis [2] is 0%. Further, the pLD50 in the data set on Chilo suppressalis [3] was below 5.

Consider `O=C(Nc1nnc(-c2ccc(Cl)cc2)s1)c1ccccc1F`, for which the mortality with Chilo suppressalis [5] is 0%. The pLD50 in the data set on Chilo suppressalis [4] is recorded as below 4.6.

For `O=C(Nc1nnc(-c2ccc(Cl)cc2)s1)c1ccccc1Br`, the mortality in the data set on Chilo suppressalis [5] came to 0%. Also, the pLD50 in the data set on Chilo suppressalis [4] is below 4.6. In addition, in the data set on Chilo suppressalis [6], the “inhibition (INH)” value is 32%.

Regarding `O=C(Nc1nnc(-c2ccc(Cl)cc2)s1)c1ccccc1Cl`, the mortality with Chilo suppressalis [5] came to 41%. Moreover, in the data set with Chilo suppressalis [4], the pLD50 is below 4.6. Moreover, the “inhibition (INH)” value in the data set with Chilo suppressalis [6] was determined as 37%.

In turn, `COc1cccc(OC)c1C(=O)Nc1nnc(-c2ccc(C)cc2)s1` yielded a logP in data set [1] of 3.85. Moreover, the pLD50 with Chilo suppressalis [3] is 5.

Turning to `O=C(NC(=O)c1c(F)cccc1F)Nc1ccc(Cl)cc1` [DIFLUBENZURON], the pLD50 in the data set on Chilo suppressalis [3] was determined as 6.64.

Take `O=C(Nc1nnc(-c2ccc(Cl)cc2)s1)c1ccccc1[N+](=O)[O-]`: the mortality in the data set with Chilo suppressalis [5] came to 0%. Besides, the pLD50 in the data set with Chilo suppressalis [4] is on record as below 4.6. For the same molecule, the “inhibition (INH)” value with Chilo suppressalis [6] was 0%.

`O=C(Nc1nnc(-c2ccc(Cl)cc2)s1)c1ccccc1`: the mortality in the data set with Chilo suppressalis [5] stood at 0%. In the data set with Chilo suppressalis [4], the pLD50 is below 5.6. Further, the “inhibition (INH)” value with Chilo suppressalis [6] is 10%.

For `CCN(CC)c1ccccc1C(=O)Nc1nnc(-c2ccc(Cl)cc2)s1`, the mortality in the data set with Chilo suppressalis [5] worked out at 0%. Besides, the pLD50 with Chilo suppressalis [4] was below 5. Moreover, the “inhibition (INH)” value with Chilo suppressalis [6] was found to be 8%.

Turning to `COc1ccccc1C(=O)Nc1nnc(-c2ccc(Cl)cc2)s1`, the pLD50 in the data set on Chilo suppressalis [4] is given as 5.96.

As for `O=C(Nc1nnc(-c2ccc(Cl)cc2)s1)c1ccccc1C(F)(F)F`, the mortality in the data set with Chilo suppressalis [5] is given as 0%. The pLD50 in the data set with Chilo suppressalis [4] is reported as below 4.6. For the same molecule, the “inhibition (INH)” value with Chilo suppressalis [6] worked out at 7%.

Regarding `COc1cccc(OC)c1C(=O)Nc1nnc(-c2ccc([N+](=O)[O-])cc2)s1`, the logP in data set [1] turned out to be 2.54. Besides, the mortality in the data set with Chilo suppressalis [2] is reported as 0%. For the same molecule, the pLD50 in the data set with Chilo suppressalis [3] is recorded as below 5.

On to `Cc1cccc(C)c1C(=O)Nc1nnc(-c2ccc(Cl)cc2)s1`, for which, in the data set with Chilo suppressalis [4], the pLD50 was 5.48.

(Values after ChEMBL document CHEMBL3046178, “Quantitative Structure-Activity Relationships of Larvicidal N-[5-(Substituted phenyl)-1, 3, 4-thiadiazol-2-yl]-benzamides in the Inhibition of N-Acetylglucosamine Incorporation into a Cultured Integument System” (J Pestic Sci, 1996).)
